Test results as given in ChEMBL document CHEMBL1201862, “PubChem BioAssay data set” (2004).
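In this assay, cells in 96-well plates receive the compound at five concentrations for 48 hours. Endpoints are linearly interpolated between the surrounding concentrations. At the GI50, growth is halved.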 The source made the active and inactive calls. Cut-off read from the data, not from the text of the source: active = GI50 up to about 1.1 µM and inactive = higher. Where a SMILES comes first, the peptide text is derived from it. The star is where a group is joined. Cbz = O=C(OCc1ccccc1)*

Columns and labels:
Experiment in all cases: NCI-60 cell line screen, 48 h
RPMI-8226 = system: RPMI-8226
KM12 = system: KM12
SK-OV-3 = system: SK-OV-3
SW-620 = system: SW-620
NCI-H23 = system: NCI-H23
A549 = system: A549
UACC-62 = system: UACC-62
SF-295 = system: SF-295
OVCAR-5 = system: OVCAR-5
SNB-75 = system: SNB-75
M14 = system: M14
DU-145 = system: DU-145
U-251 = system: U-251
T47D = system: T47D
OVCAR-3 = system: OVCAR-3
NCI-H226 = system: NCI-H226
HCC 2998 = system: HCC 2998
K562 = system: K562
BT-549 = system: BT-549

Compound	GI50 (RPMI-8226)	GI50 (KM12)	GI50 (SK-OV-3)	GI50 (SW-620)	GI50 (NCI-H23)	GI50 (A549)	GI50 (UACC-62)	GI50 (SF-295)	GI50 (OVCAR-5)	GI50 (SNB-75)	GI50 (M14)	GI50 (DU-145)	GI50 (U-251)	GI50 (T47D)	GI50 (OVCAR-3)	GI50 (NCI-H226)	GI50 (HCC 2998)	GI50 (K562)	GI50 (BT-549)
CCOC(=O)CCC(NC(=O)CNC(=O)CNC(=O)C(CCC(=O)OCC)NC(=O)C(CCC(=O)OCC)NC(=O)C(CCC(=O)OCC)NC(=O)OCc1ccccc1)C(=O)NC(CCC(=O)OCC)C(=O)NC(CCC(=O)OCC)C(=O)OCC (configuration not stated) (Cbz-E(OEt)E(OEt)E(OEt)GGE(OEt)E(OEt)E(OEt)-OEt; configuration not given here)	> 75 µM (inactive)	> 75 µM (inactive)	> 75 µM (inactive)	> 75 µM (inactive)	> 75 µM (inactive)	> 75 µM (inactive)	> 75 µM (inactive)	> 75 µM (inactive)	> 75 µM (inactive)	> 75 µM (inactive)	> 75 µM (inactive)	> 75 µM (inactive)	> 75 µM (inactive)	–	–	–	–	–	–
CN1C/C(=C\c2ccc(Cl)cc2)C(=O)/C(=C/c2ccc(Cl)cc2)C1	0.193 µM (active)	0.774 µM (active)	–	0.386 µM (active)	2.44 µM (inactive)	2.2 µM (inactive)	2.22 µM (inactive)	0.667 µM (active)	3.34 µM (inactive)	0.635 µM (active)	1.73 µM (inactive)	2.54 µM (inactive)	0.454 µM (active)	4.48 µM (inactive)	1.63 µM (inactive)	4.45 µM (inactive)	2.33 µM (inactive)	0.33 µM (active)	–
O=c1ccn(C2OC(CO)C(O)C2F)c(=O)n1Cc1ccccc1 (configuration not stated)	> 100 µM (inactive)	> 100 µM (inactive)	–	> 100 µM (inactive)	> 100 µM (inactive)	> 100 µM (inactive)	> 100 µM (inactive)	> 100 µM (inactive)	> 100 µM (inactive)	> 100 µM (inactive)	–	> 100 µM (inactive)	> 100 µM (inactive)	> 100 µM (inactive)	> 100 µM (inactive)	> 100 µM (inactive)	–	> 100 µM (inactive)	–
N#Cc1nc(C(=O)c2ccccc2)oc1N	> 100 µM (inactive)	> 100 µM (inactive)	> 100 µM (inactive)	> 100 µM (inactive)	–	> 100 µM (inactive)	> 100 µM (inactive)	–	> 100 µM (inactive)	0.052 µM (active)	> 100 µM (inactive)	> 100 µM (inactive)	> 100 µM (inactive)	–	–	–	–	> 100 µM (inactive)	–
Nc1nc(NNc2cccc(F)c2)cc(=O)[nH]1	32.2 µM (inactive)	22.4 µM (inactive)	–	31.2 µM (inactive)	48.3 µM (inactive)	29.6 µM (inactive)	–	33.3 µM (inactive)	> 100 µM (inactive)	–	56.5 µM (inactive)	81.3 µM (inactive)	20.7 µM (inactive)	–	24.9 µM (inactive)	> 100 µM (inactive)	35.5 µM (inactive)	36.1 µM (inactive)	77.1 µM (inactive)
CC(C)(C)c1cc(/C=C/C(=O)CC(=O)/C=C/c2cc(C(C)(C)C)c(O)c(C(C)(C)C)c2)cc(C(C)(C)C)c1O	> 50 µM (inactive)	28.4 µM (inactive)	> 50 µM (inactive)	> 50 µM (inactive)	> 50 µM (inactive)	> 50 µM (inactive)	> 50 µM (inactive)	> 50 µM (inactive)	> 50 µM (inactive)	> 50 µM (inactive)	> 50 µM (inactive)	> 50 µM (inactive)	> 50 µM (inactive)	–	> 50 µM (inactive)	> 50 µM (inactive)	–	–	> 50 µM (inactive)
NC(=O)Nc1c(Cl)cc(S(N)(=O)=O)cc1Cl	> 100 µM (inactive)	> 100 µM (inactive)	> 100 µM (inactive)	> 100 µM (inactive)	> 100 µM (inactive)	> 100 µM (inactive)	> 100 µM (inactive)	> 100 µM (inactive)	> 100 µM (inactive)	> 100 µM (inactive)	> 100 µM (inactive)	> 100 µM (inactive)	> 100 µM (inactive)	–	> 100 µM (inactive)	> 100 µM (inactive)	–	> 100 µM (inactive)	> 100 µM (inactive)
CC(C)(C)OC(=O)C1CC[C@@H](CC(=O)Oc2ccc([N+](=O)[O-])cc2)N1 (some centres not stated)	> 100 µM (inactive)	> 100 µM (inactive)	> 100 µM (inactive)	> 100 µM (inactive)	> 100 µM (inactive)	> 100 µM (inactive)	> 100 µM (inactive)	> 100 µM (inactive)	> 100 µM (inactive)	> 100 µM (inactive)	> 100 µM (inactive)	> 100 µM (inactive)	> 100 µM (inactive)	–	> 100 µM (inactive)	> 100 µM (inactive)	> 100 µM (inactive)	–	–
CS(=O)(=O)CC1=Nc2nnc(CCCCCCCc3nnc4n3C(=O)C(CS(C)(=O)=O)=N4)n2C1=O	> 100 µM (inactive)	> 100 µM (inactive)	> 100 µM (inactive)	> 100 µM (inactive)	> 100 µM (inactive)	> 100 µM (inactive)	> 100 µM (inactive)	> 100 µM (inactive)	> 100 µM (inactive)	> 100 µM (inactive)	> 100 µM (inactive)	–	> 100 µM (inactive)	–	> 100 µM (inactive)	> 100 µM (inactive)	> 100 µM (inactive)	> 100 µM (inactive)	–
O=c1c2cc(S(=O)(=O)Nc3ccc(Cl)cc3Cl)ccc2ncn1NS(=O)(=O)c1cccc2ccccc12	21.1 µM (inactive)	22.4 µM (inactive)	66.8 µM (inactive)	71.4 µM (inactive)	40.4 µM (inactive)	36.9 µM (inactive)	28.9 µM (inactive)	37.4 µM (inactive)	61.5 µM (inactive)	60.5 µM (inactive)	93.8 µM (inactive)	36.5 µM (inactive)	58.2 µM (inactive)	–	33.9 µM (inactive)	18.6 µM (inactive)	20 µM (inactive)	63.5 µM (inactive)	16.5 µM (inactive)
NC1=NC(=O)[C@H](CSCc2ccccc2)N1C(=O)OCc1ccccc1	–	> 100 µM (inactive)	–	> 100 µM (inactive)	> 100 µM (inactive)	–	> 100 µM (inactive)	> 100 µM (inactive)	> 100 µM (inactive)	> 100 µM (inactive)	–	> 100 µM (inactive)	> 100 µM (inactive)	–	> 100 µM (inactive)	> 100 µM (inactive)	> 100 µM (inactive)	> 100 µM (inactive)	> 100 µM (inactive)
CCCNC(=O)Nc1ccc2c(c1)Cc1cc(N(CCCl)CCCl)ccc1-2	25.4 µM (inactive)	22 µM (inactive)	–	28.6 µM (inactive)	36.1 µM (inactive)	23.9 µM (inactive)	21.9 µM (inactive)	14.2 µM (inactive)	76 µM (inactive)	–	79.4 µM (inactive)	14.6 µM (inactive)	18 µM (inactive)	–	22.1 µM (inactive)	–	28.2 µM (inactive)	10.9 µM (inactive)	22 µM (inactive)
CCSc1cc2c(cc1O)CC[C@@H]1[C@@H]2CC[C@]2(C)[C@@H](O)CC[C@@H]12	8.17 µM (inactive)	8.11 µM (inactive)	17.8 µM (inactive)	3.47 µM (inactive)	18.8 µM (inactive)	4.3 µM (inactive)	11.2 µM (inactive)	–	23 µM (inactive)	15.2 µM (inactive)	–	24.5 µM (inactive)	12.6 µM (inactive)	> 10 µM (inactive)	–	15 µM (inactive)	13.9 µM (inactive)	4.12 µM (inactive)	–
N#CCSc1c(-c2ccccc2)c(=O)n(-c2ccccc2)c(=S)n1-c1ccccc1	> 100 µM (inactive)	> 100 µM (inactive)	> 100 µM (inactive)	> 100 µM (inactive)	> 100 µM (inactive)	> 100 µM (inactive)	32.9 µM (inactive)	> 100 µM (inactive)	> 100 µM (inactive)	20.1 µM (inactive)	> 100 µM (inactive)	> 10 µM (inactive)	> 100 µM (inactive)	> 100 µM (inactive)	> 100 µM (inactive)	> 100 µM (inactive)	–	> 100 µM (inactive)	–
COc1ccc(C2C3=C(COC3=O)Oc3cc4c(cc32)OCO4)c(OC)c1 (configuration not stated)	7.74 µM (inactive)	5.19 µM (inactive)	17.3 µM (inactive)	5.81 µM (inactive)	19 µM (inactive)	10.9 µM (inactive)	6.79 µM (inactive)	5.77 µM (inactive)	43.5 µM (inactive)	10.9 µM (inactive)	15 µM (inactive)	26.3 µM (inactive)	19.3 µM (inactive)	–	5.52 µM (inactive)	31.8 µM (inactive)	20.8 µM (inactive)	4.3 µM (inactive)	22.9 µM (inactive)
Cc1[nH]c(-c2ccccc2)c(-c2ccc(Cl)cc2)c1C(=O)ONC(=O)c1ccccc1	3.02 µM (inactive)	7.24 µM (inactive)	10.5 µM (inactive)	7.26 µM (inactive)	4.02 µM (inactive)	2.19 µM (inactive)	10.1 µM (inactive)	2.1 µM (inactive)	5.07 µM (inactive)	3.56 µM (inactive)	4.55 µM (inactive)	1.58 µM (inactive)	1.78 µM (inactive)	–	3.2 µM (inactive)	3.61 µM (inactive)	3.32 µM (inactive)	2.65 µM (inactive)	2.56 µM (inactive)
CCCc1cc(=O)oc2c3c(c4c(c12)OC(C)(C)C=C4)O[C@@H](C)[C@H](C)C3=O	3.83 µM (inactive)	13.6 µM (inactive)	–	13.4 µM (inactive)	17 µM (inactive)	8.83 µM (inactive)	–	16.6 µM (inactive)	17.9 µM (inactive)	13.6 µM (inactive)	–	19.5 µM (inactive)	23.4 µM (inactive)	–	17.2 µM (inactive)	18.2 µM (inactive)	15.3 µM (inactive)	6.46 µM (inactive)	13.7 µM (inactive)
